In brackets after ≈: the same amount, converted by molar mass. Read-outs that look alike come from different tables or passages of the source. Non-standard residues stand in square brackets, D forms with d. Residues, ends and D or L forms follow the SMILES beside them. ξ: configuration not given here. *: point of attachment. Tos = Cc1ccc(S(=O)(=O)*)cc1; NHPh = c1ccc(N*)cc1; ξA = CC(N)C(=O)O
Legend:
[1] = tested on: S. typhi; assay: Antimicrobial MIC, agar cup diffusion; assay type: cell-based; conditions: Salmonella enterica, read-out: MIC (minimum inhibitory concentration)
[2] = tested on: C. albicans; assay: Antimicrobial MIC, agar cup diffusion; assay type: cell-based; conditions: Candida albicans, read-out: MIC (minimum inhibitory concentration)
[3] = tested on: P. falciparum strain W2; assay: In vitro antimalarial assay; assay type: cell-based; conditions: Plasmodium falciparum, W2; P. falciparum, 48 h, >99% of parasites inhibited from developing to schizonts
[4] = tested on: Plasmodium berghei infection in mice; assay: In vivo antimalaria test; conditions: Plasmodium berghei, P. berghei infected mice, oral
Protocol: Experimental Design and Treatment of Mice. Methods of Peter et al.[30] and Kalra et al.[31] for antiplasmodial assay against Plasmodium berghei infection in mice with some modifications were employed. About eighty infected mice were randomly divided into five groups, each having […] mice. The inoculum was prepared from a donor mouse with rising parasitemia of 60.42%. After 7 days of infection, animals begin to receive treatment (100 and 200 mg/kg b wt.) of the synthesized compounds (7a–7n) for 12 days with constant check of the percentage of parasitemia after a 4-day interval. Artemisinin (100 and 200 mg/kg body weight.) was given to the other mice in group three as positive control, group four was not treated and group five was not infected. All the compounds and the drugs were given orally by using a standard intragastric tube. For all parasitemia determination, blood samples were collected from tail snip of each mouse and thin smears prepared and stained with 10% Giemsa solution. The uniform fields of each stained slide (for each mouse) were examined under microscope with an oil immersion objective of 100X magnification power and average percent of parasitemia was determined.
To determine the in vivo activity, the compounds were tested against P. berghei NK(65 Strain) infection mice., the animals were obtained from Nigeria institute for Trypanosoma and onchocercarioses Research (NTIR) Vom, Plateau State Nigeria. The permission and approval for the use of animals in this experiment were granted by the Animal Ethics Committee, Federal College of Vetrenary Medical Laboratory, Vom, Plateau State. Method of Peter et al.[30], for antiplasmodial assay against P. berghei in mice with some modification were employed. Artemisimin was used as treated control of the experiments. The percentage inhibition of parasite multiplication was calculated comparing the treated group with untreated group by means of the following formula[39] [(A − B)/A] × 100; where A = parasitaemia in the untreated group and B = parasitemia in the test group. […] Most of the compounds were active against P. berghei after 7 days post-infection by reducing the parasiteamia by at least 40% when in a dose of 100 mg/kg (Table 5). The inhibition of parasitaemia increased on 12th day post infection for almost all the compounds. […] However in consideration of the compounds ability to inhibit parasitaemia to the control drug. […] These compounds should be considered for further studies because of its promising activities.

[5] = tested on: K. pneumoniae; assay: Antimicrobial MIC, agar cup diffusion; assay type: cell-based; conditions: Klebsiella pneumoniae, read-out: MIC (minimum inhibitory concentration)
[6] = tested on: A. niger; assay: Antimicrobial MIC, agar cup diffusion; assay type: cell-based; conditions: Aspergillus niger, read-out: MIC (minimum inhibitory concentration)
[7] = tested on: B. subtilis; assay: Antimicrobial MIC, agar cup diffusion; assay type: cell-based; conditions: for MIC: Bacillus subtilis, B. subtilis, read-out: MIC (minimum inhibitory concentration); for activity against Bacillus compared with ciprofloxacin: in words
[8] = tested on: E. coli; assay: Antimicrobial MIC, agar cup diffusion; assay type: cell-based; conditions: Escherichia coli, read-out: MIC (minimum inhibitory concentration)
[9] = 168 h, read-out: % inhibition 7 days post-treatment (100 mg/kg), day 7
[10] = 168 h, read-out: % inhibition 7 days post-treatment (200 mg/kg), day 7
[11] = 288 h, read-out: % inhibition 12 days post-treatment (100 mg/kg), day 12
[12] = 288 h, read-out: % inhibition 12 days post-treatment (200 mg/kg), day 12

Q: Which MIC [1] does the source give for `CC(NS(=O)(=O)c1ccccc1)C(=O)NCC(=O)Nc1cccc(Cl)c1` (centres unmarked) [Compound 7a, N-(2-((3-chlorophenyl)amino)-2-oxoethyl)-2-(phenylsulfonamido)propanamide] here?
A: 199 µg/mL (≈ 503 µM)

Q: What about the MIC [2] of the same molecule?
A: 56.1 µg/mL (≈ 142 µM)

Q: What about the MIC [3] of the same molecule?
A: 0.37 µM (≈ 0.146 µg/mL)

Q: What about the inhibition in vivo at 100 mg/kg [4, 9] of the same molecule?
A: 36.2%

Q: And the inhibition in vivo at 200 mg/kg [4, 10]?
A: 52.1%

Q: And the inhibition in vivo at 100 mg/kg [4, 11]?
A: 50%

Q: What about the inhibition in vivo at 200 mg/kg [4, 12] of the same molecule?
A: 61.4%

Q: And the MIC [5]?
A: 251 µg/mL (≈ 634 µM)

Q: And the MIC [6]?
A: 1580 µg/mL (≈ 4000 µM)

Q: What about the MIC [7] of the same molecule?
A: 219 µg/mL (≈ 553 µM)

Q: What about the MIC [8] of the same molecule?
A: 489 µg/mL (≈ 1240 µM)

Q: With `Cc1ccc(S(=O)(=O)NC(C)C(=O)NCC(=O)Nc2ccccc2)cc1` (centres unmarked) [Compound 7m, 2–(4-methylphenylsulfonamido)-N-(2-oxo-2-(phenylamino)ethyl)propanamide] (Tos-[ξA]-Gly-NHPh) as the molecule, how does the MIC [1] read?
A: 57 µg/mL (≈ 152 µM)

Q: And the MIC [2]?
A: 7940 µg/mL (≈ 21100 µM)

Q: And the MIC [3]?
A: 1.87 µM (≈ 0.702 µg/mL)

Q: What about the inhibition in vivo at 100 mg/kg [4, 9] of the same molecule?
A: 33.5%

Q: And the inhibition in vivo at 200 mg/kg [4, 10]?
A: 71.4%

Q: What about the inhibition in vivo at 100 mg/kg [4, 11] of the same molecule?
A: 29.3%

Q: And the inhibition in vivo at 200 mg/kg [4, 12]?
A: 74%

Q: And the MIC [5]?
A: 138 µg/mL (≈ 368 µM)

Q: And the MIC [6]?
A: 56 µg/mL (≈ 149 µM)

Q: And the MIC [7]?
A: 129 µg/mL (≈ 344 µM)

Q: And the “activity against Bacillus compared with ciprofloxacin” value [7]?
A: greater activity against Bacillus than ciprofloxacin

Q: What about the MIC [8] of the same molecule?
A: 123 µg/mL (≈ 328 µM)

Q: Which MIC [1] does the source give for `CC(NS(=O)(=O)c1ccccc1)C(=O)NCC(=O)Nc1ccccc1` (centres unmarked) [Compound 7f, N-(2-oxo-2-(phenylamino)ethyl)-2-(phenylsulfonamido)propanamide] here?
A: 4680 µg/mL (≈ 12900 µM)

Q: And the MIC [2]?
A: 214 µg/mL (≈ 592 µM)

Q: And the MIC [3]?
A: 2.32 µM (≈ 0.839 µg/mL)

Q: And the inhibition in vivo at 100 mg/kg [4, 9]?
A: 38.2%

Q: What about the inhibition in vivo at 200 mg/kg [4, 10] of the same molecule?
A: 71%

Q: And the inhibition in vivo at 100 mg/kg [4, 11]?
A: 41.9%

Q: And the inhibition in vivo at 200 mg/kg [4, 12]?
A: 73.3%

Q: And the MIC [5]?
A: 5010 µg/mL (≈ 13900 µM)

Q: And the MIC [6]?
A: 105 µg/mL (≈ 290 µM)

Q: What about the MIC [7] of the same molecule?
A: 155 µg/mL (≈ 429 µM)

Q: And the “activity against Bacillus compared with ciprofloxacin” value [7]?
A: greater activity against Bacillus than ciprofloxacin

Q: What about the MIC [8] of the same molecule?
A: 131 µg/mL (≈ 362 µM)

Q: Which results are given for `C[C@@H]1CC[C@H]2[C@@H](C)C(=O)O[C@@H]3O[C@@]4(C)CC[C@@H]1[C@]32OO4` [Artemisinin, reference compound]?
A: MIC [3]: 0.72 µM (≈ 0.203 µg/mL); inhibition in vivo at 100 mg/kg [4, 9]: 75.7%; inhibition in vivo at 200 mg/kg [4, 10]: 78.9%; inhibition in vivo at 100 mg/kg [4, 11]: 86.2%; inhibition in vivo at 200 mg/kg [4, 12]: 82.3%

Q: `O=C(O)c1cn(C2CC2)c2cc(N3CCNCC3)c(F)cc2c1=O` [CIP, Ciprofloxacin, reference compound] was tested. Which MIC [1] did it give?
A: 128 µg/mL (≈ 386 µM)

Q: What about the MIC [5] of the same molecule?
A: 113 µg/mL (≈ 341 µM)

Q: And the MIC [7]?
A: 184 µg/mL (≈ 555 µM)

Q: What about the MIC [8] of the same molecule?
A: 131 µg/mL (≈ 395 µM)

Reference: publication PMC6713104, “New peptide derived antimalaria and antimicrobial agents bearing sulphonamide moiety” (Journal of Enzyme Inhibition and Medicinal Chemistry, 2019)
